We go through nine compounds from ChEMBL document CHEMBL1159246, “Further Structural Studies on the Petroformynes” (J Nat Prod, 1995).

This data set relates to Artemia salina. Nature of the data set: Toxicity in Artemia salina after 24 hrs. It counts as organism-based. The note with it: in vivo.
`C#CC(=O)/C=C/CC/C=C\CCCC/C=C\CCC#CC(O)C#C/C=C/CC/C=C\CCCCCCCCCCCCC/C=C/C(O)C#C` (centres undefined) [PETROFORMYNE 8] yielded an LD50 of 0.77 ppm.

In the case of `C#CCCCCCCCCCCCCCCCC/C=C\CC/C=C\C#CC(O)C#CCCCC/C=C\CCCCCCCCC(O)C#C` (centres undefined), the LD50 worked out at 6.8 ppm.

As to `C#C/C=C\CCCCCCCCCCCCCC/C=C\CCCCC#CC(O)C#CCCCC/C=C\CCCCCC/C=C/C(=O)C#C` (centres undefined), the LD50 was 0.5 ppm.

`C#CCCCCCCCCCCCCCCCC/C=C\CC/C=C/C#CC(=O)C#CCCCC/C=C\CCCCCC/C=C/C(O)C#C` (centres undefined) registered an LD50 of 1 ppm.

Turning to `C#CCCCCCCCCCCCCCCCC/C=C\CC/C=C\C#CC(O)C#CCCCC/C=C\CCCCCC/C=C/C(O)C#C` (centres undefined) [ISOPETROFORMYNE 3], the LD50 turned out to be 0.26 ppm.

For the compound `C#CCCCCCCCCCCCCCCCC/C=C\CCCCC#CC(=O)C#CCCCC/C=C\CCCCCC/C=C/C(O)C#C` (centres undefined), the LD50 is reported as 6.3 ppm.

Compound `C#CC(=O)/C=C/CCCCCC/C=C\CCCCC#CC(O)C#C/C=C/CC/C=C\CCCCCCCCCCCCC/C=C/C(=O)C#C` (centres undefined) showed an LD50 of 0.18 ppm.

On to `C#CC(=O)/C=C/CC/C=C\CCCC/C=C\CCC#CC(O)C#C/C=C/CC/C=C\CCCCCCCCCCCCC/C=C/C(=O)C#C` (centres undefined), for which the LD50 came out at 5 ppm.

The compound `C#C/C=C\CCCCCCCCCCCCCC/C=C\CC/C=C\C#CC(O)C#CCCCC/C=C\CCCCCC/C=C/C(O)C#C` (centres undefined) [ISOPETROFORMYNE 4] registered an LD50 of 0.6 ppm.
